Common to all, as to assay type: functional, cell-based
Assay [1] concerns THP-1. In words: Inhibition of LPS-induced Tumor necrosis factor-alpha production (TNF-alpha) in THP-1 cells. The conditions noted are these: Homo sapiens.
Assay [2] is described as follows: Compound was tested for the inhibition of production of IL-1 beta in human monocytes.
Assay [3] can be described thus: Compound was tested for the inhibition of production of IL-6 in human monocytes.

One may read the IC50 as the point on the concentration scale where inhibition reaches its midpoint.

On to `C[C@@H](c1ccccc1)N1C(=O)c2c(F)c(F)c(F)c(F)c2C1=O`, for which half-maximal inhibition in assay [1] (IC50) required 367 nM.
On the same count and under the same terms, with `C[C@]1(N2C(=O)c3c(F)c(F)c(F)c(F)c3C2=O)CCC(=O)NC1=O` the figure was 443 nM; with `C[C@@]1(N2C(=O)c3c(F)c(F)c(F)c(F)c3C2=O)CCC(=O)NC1=O`, 494 nM.
The same measure, in the same setting: with `COC(=O)C[C@H](c1ccc(OC)c(OC)c1)N1C(=O)c2c(F)c(F)c(F)c(F)c2C1=O` the figure was 250 nM.
Same read-out and setting: with `CN1C(=O)c2c(F)c(F)c(F)c(F)c2C1=O` the figure was 413 nM.
On to `O=C1CCC(N2C(=O)c3c(F)c(F)c(F)c(F)c3C2=O)C(=O)N1` (stereo unspecified), for which the IC50 was 400 nM in assay [2], 490 nM in assay [1] and 700 nM in assay [3].
On to `COC(=O)C[C@@H](c1ccc(OC)c(OC)c1)N1C(=O)c2c(F)c(F)c(F)c(F)c2C1=O`, for which the half-maximal inhibitory concentration (IC50) in assay [1] was 313 nM.
Compound `C[C@H](c1ccccc1)N1C(=O)c2c(F)c(F)c(F)c(F)c2C1=O` yielded an IC50 in assay [1] of 434 nM.
Still for that read-out and setting: with `O=C1c2c(F)c(F)c(F)c(F)c2C(=O)N1c1ccccc1` the figure was 425 nM.
Take `CC(c1ccccc1)N1C(=O)c2c(F)c(F)c(F)c(F)c2C1=O` (racemic): the IC50 in assay [1] turned out to be 415 nM.
Regarding `CC1(N2C(=O)c3c(F)c(F)c(F)c(F)c3C2=O)CCC(=O)NC1=O` (racemic), the IC50 in assay [1] worked out at 378 nM.
Take `COC(=O)CC(c1ccc(OC)c(OC)c1)N1C(=O)c2c(F)c(F)c(F)c(F)c2C1=O` (racemic): the IC50 was found to be 400 nM in assay [2], 249 nM in assay [1] and 300 nM in assay [3].

For the origin of these results see ChEMBL document CHEMBL1130806, “Enhanced potency of perfluorinated thalidomide derivatives for inhibition of LPS-induced tumor necrosis factor-alpha production is associated with a change of mechanism of action” (Bioorg Med Chem Lett, 1998).
